{"source": "patent US8436049B2", "about": "“Uses of pentamidine and related compounds” (State of Oregon Acting By and Through the State Board of …, priority 2008, dated 2013)", "key": {"[1]": {"test_system": "Serca1 pre-mRNA splicing, HSA^LR transgenic mice", "assay": "Serca1 exon 22 splicing in vastus muscle of HSA^LR mouse model of DM", "assay_type": "in vivo", "details": "intraperitoneal, HSA^LR control 17±4%, normal 99.7±0.1%", "method": "(§1) Mouse handling and experimental procedures were conducted in accordance with the Association for Assessment and Accreditation of Laboratory Animal Care. HSA^LR transgenic mice in line 20b expressing human skeletal actin mRNA with ˜250 CUG repeats in the 3′ UTR were used (Mankodi et al., Science 289:1769-1772, 2000). Age- and gender-matched HSA^LR mice were injected intraperitoneally with pentamidine or saline (control). For a low-dose regimen, 25 mg/kg of pentamidine was administrated twice daily for 5 days. For a higher-dose regimen, 40 mg/kg of pentamidine was injected once daily for 7 days. Mice were sacrificed one day after the last injection, and vastus muscle was obtained for splicing analysis. […] PCR amplification was carried out for 22-24 cycles with the following primer pairs: Clc-1 forward, [sequence] (SEQ ID NO: 7), and reverse, [sequence] (SEQ ID NO: 8); Serca1 forward, [sequence] (SEQ ID NO: 9), and reverse, [sequence] (SEQ ID NO: 10). The PCR products were analyzed on agarose gels and scanned with a laser fluorimager (Typhoon, GE Healthcare, Piscataway, N.J.). Differences between the two groups were evaluated by Student's t-test."}, "[2]": {"test_system": "Clc-1 pre-mRNA splicing, HSA^LR transgenic mice", "assay": "Clc-1 exon 7a splicing in vastus muscle of HSA^LR mouse model of DM", "assay_type": "in vivo", "details": "intraperitoneal, saline HSA^LR control 46±6%, normal mice 94±1%", "method": "as §1"}, "[3]": {"molecular_target": "T1, MBNL-CUG RNA complex (Homo sapiens, UniProt Q9NR56)", "T1 construct": "Both the full length MBNL and MBNL (1-260) constructs were cloned using BamHI and NotI restriction sites; GST (N, cleaved yes); made in house; host or cells: E. coli BL21-Star", "T1 sequence (Q9NR56 1-382 isoform Q9NR56-5)": "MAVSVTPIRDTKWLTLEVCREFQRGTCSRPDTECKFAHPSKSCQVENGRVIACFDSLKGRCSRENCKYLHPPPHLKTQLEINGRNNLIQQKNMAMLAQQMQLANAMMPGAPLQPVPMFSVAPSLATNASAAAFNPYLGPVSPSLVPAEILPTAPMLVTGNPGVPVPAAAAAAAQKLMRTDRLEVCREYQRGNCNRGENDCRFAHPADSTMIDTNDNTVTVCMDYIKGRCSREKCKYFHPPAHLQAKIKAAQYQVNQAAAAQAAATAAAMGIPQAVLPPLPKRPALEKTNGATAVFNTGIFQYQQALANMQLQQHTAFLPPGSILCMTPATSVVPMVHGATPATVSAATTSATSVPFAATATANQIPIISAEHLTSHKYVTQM", "assay": "Gel shift assay, disruption of MBNL binding to short CUG repeat RNA", "description": "MBNL1 (MBNL) was PCR amplified and was cloned into GST fusion vector pGEX-6P-1 (GE Healthcare, Piscataway, N.J.), using DNA encoding a MBNL isoform with amino acids 1-382). Both the full length MBNL and MBNL (1-260) constructs were cloned using BamHI and NotI restriction sites. Using BL21-Star expression cells (Invitrogen, Carlsbad, Calif.), protein expression was induced with 0.25 mM IPTG at an OD600 of about 0.5-1, for 3-4 hours at 37° C. Cells were lysed in 30 ml of buffer (500 mM NaCl, 25 mM Tris pH 7.5, 10 mM β-mercaptoethanol (BME) and 5% glycerol) using 1 mg/ml of lysozyme, followed by sonication (3×30 seconds). Cell extract was centrifuged for 15 minutes at 17,000 rpm, and lysate which contained GST-MBNL was collected. GST-MBNL was bound to GST affinity beads for 30 minutes at 4° C. […] The protein was then run over an anion exchange (Q) column. […] MBNL was collected in the column flow through, concentrated and dialyzed into storage buffer (30% glycerol, 300 mM NaCl, 20 mM Tris pH 7.5, 5 mM BME) and stored at −80° C. Aliquots were removed from −80° C. and temporarily placed at −20° C. until used for an experiment.\nAll RNA substrates that were radiolabeled were ordered from IDT DNA (Coralville, Iowa), and 5′ end-labeled using [γ-^32P]ATP. All radiolabeled RNAs were purified on 8% polyacrylamide denaturing gels.\nSolutions for the protein-RNA binding experiments contained 125 mM NaCl, 5 mM MgCl2, 20 mM Tris (pH 7.5), 7.5% glycerol, 2 mg/ml bovine serum albumin, and 0.1 mg/ml heparin. Prior to incubation, RNA substrates were annealed by incubation at 95° C. for 2 minutes and then placed directly on ice for 20 minutes in 66 mM NaCl, 6.7 mM MgCl2, and 27 mM Tris (pH 7.5). Protein was then added to the RNA in the presence or absence of the small molecule. The binding reaction was carried out in a 10 μL volume and was incubated for 10 minutes at room temperature before 2-4 μL were loaded on a pre-chilled 4° C. gel. RNA and RNA-protein complexes were separated on 3% acrylamide (37.5:1), 0.3% agarose (low melting point), 0.5× Tris-Borate (TB) gels, run for approximately 2-3 hours at 4° C. at 25-50 volts. Gels were dried and autoradiographed. For the neomycin B and CUG8 gel shift, an 8% acrylamide (29:1), 0.5×TB gel was used and run for 3 hours at 4° C. at 175 volts. All small molecules were dissolved in either water or ethanol, according to the manufacturer's guidance for solubility.\nFor binding curves, gels were quantified using ImageQuant® software (Molecular Dynamics, Piscataway, N.J.). The percent RNA bound was determined by taking the ratio of RNA-protein complex to total RNA, per lane. Any counts in the well were discarded as it was unapparent if the RNA was bound by protein, small molecule or was in an aggregate. Binding curves were graphed using KaleidaGraph software (Synergy Software, Reading, Pa.). For the neomycin B and CUG8 gel shift, the apparent Kd was determined using Equation 1, where Y=fraction bound, m0=small molecule concentration, m1=total RNA concentration, and m2=Kd.\nFor determining the EC50, Equation 3 was used, where m0=small molecule concentration, m1=EC50, m2=Hill coefficient, and m3=fraction MBNL bound without small molecule present. Y=m3/[1+(m0/m1)^m2] Equation 3 Results"}, "[4]": {"details": "25 mg/kg twice daily for 5 days"}}, "note": "“And” between values parts separate entries of the source, which are not always exact repeats. Identical values can stand only once.", "data": [{"smiles": "N=C(N)c1ccc(OCCCCCOc2ccc(C(=N)N)cc2)cc1", "note": "[pentamidine]", "values": [{"measurement": "Serca1 exon 22 inclusion", "setting": "[1]; [4]", "value": "22±2", "unit": "%"}, {"measurement": "Serca1 exon 22 inclusion", "setting": "[1]; 40 mg/kg once daily for 7 days", "value": "40±4", "unit": "%"}, {"measurement": "Clc-1 exon 7a exclusion", "setting": "[2]; [4]", "value": "63±3", "unit": "%"}, {"measurement": "Clc-1 exon 7a exclusion", "setting": "[2]; 40 mg/kg once daily for 7 days", "value": "66±4", "unit": "%"}, {"measurement": "Disruption of the MBNL-CUG interaction", "setting": "[3]; gel shift screen, increasing amounts of small molecule", "value": "disrupt the MBNL-CUG interaction at micromolar concentrations"}, {"measurement": "EC50", "setting": "[3]; gel shift, short CUG repeat RNA (CUG4), read-out: EC50 for disruption of MBNL binding to CUG repeat construct", "value": "~58 µM and 58 µM"}]}]}
